According to patent publication EP4796538A1, “NOVEL QUINOXALINE COMPOUNDS, MANUFACTURING METHOD THEREOF, AND USES THEREOF” (Gachon University of Industry-Academic Cooperation …, priority 2023, dated 2025):
Where two headings read alike, the source gives them in different places.

Legend:
RET(G810R) = target: T1, RET(G810R) (Homo sapiens, UniProt P07949, G810R); assay: Kinase panel inhibition, radiolabeled [γ-33P] ATP (Reaction Biology Corp); format: biochemical; conditions: for remaining activity at 0.1 µM: compound at 0.1 uM, ATP 10 µM, read-out: % Enzyme Activity (relative to DMSO controls) G810R
T1 construct: purchased Reaction Biology Corp

RET-CCDC6 (PTC1) = target: T2, RET-CCDC6 (PTC1) (Homo sapiens, UniProt P07949); assay: as above; format: biochemical; conditions: compound at 10 uM, ATP 1 µM
T2 construct: purchased Reaction Biology Corp

RET (G810S/M918T) = target: T3, RET (G810S/M918T) (Homo sapiens, UniProt P07949, G810S/M918T); assay: as above; format: biochemical; conditions: compound at 10 uM, ATP 1 µM
T3 construct: purchased Reaction Biology Corp

BaF3-RET(V804M) = assay: Cell proliferation inhibition (GI50), Cell Counting Kit-8, Ba/F3 cell line; format: cell-based, rodent; conditions: Mus musculus, read-out: GI50 of BaF3-RET(V804M)
Method: To evaluate the inhibitory activity of the compounds represented by Formula I or Formula IV according to the present invention against RET mutation-driven cell growth in the Ba/F3 cell line and against cell growth in the non-small cell lung cancer cell line A-549, the following experiment was performed.
Each cell line was seeded in a 96-well plate at 1×10^4 cells/90 µL/well, and 10 µL/well of culture medium containing each example and intermediate compound or DMSO control at 9 concentrations (1 nM to 100 µM) prepared by 3-fold serial dilutions was added to achieve a final concentration of 0 to 100 µM, followed by incubation for 72 hours in a 37°C, 5% CO2 incubator. After 72 hours of incubation, the compound-treated plates were removed, and Cell Counting Kit-8 solution was added at 10 µL/well and mixed well. The plates were then incubated for 2 hours in a CO2 incubator at 37°C, and the absorbance was measured at 450 nm using a microplate reader.
In addition, the data were expressed as a percentage relative to vehicle-treated cells, and GI50 values were calculated using GraphPad Prism 8.0 (GraphPad Software Inc., San Diego), and the results are shown in Table 8 below. As a control compound, ponatinib, a known RET inhibitor, was treated to calculate the GI50 values.

A-549 = assay: Cell proliferation inhibition, Cell Counting Kit-8, non-small cell lung cancer cell line; format: cell-based; conditions: A-549 cell line; 72 hours incubation; test concentration not given
RET(V804M) = target: T4, RET(V804M) (Homo sapiens, UniProt P07949, V804M); assay: Kinase panel inhibition, radiolabeled [γ-33P] ATP (Reaction Biology Corp); format: biochemical; conditions: for remaining activity at 0.1 µM: compound at 0.1 uM, ATP 10 µM, read-out: % Enzyme Activity (relative to DMSO controls) V804M
T4 construct: purchased Reaction Biology Corp

RET(V804M)-KIF5B = target: T5, RET(V804M)-KIF5B (Homo sapiens, UniProt P07949, V804M); assay: as above; format: biochemical; conditions: for remaining activity at 0.1 µM: compound at 0.1 uM, ATP 10 µM, read-out: % Enzyme Activity (relative to DMSO controls) RET (V804M )-KIF5B
T5 sequence (P07949 713-1114 V804M): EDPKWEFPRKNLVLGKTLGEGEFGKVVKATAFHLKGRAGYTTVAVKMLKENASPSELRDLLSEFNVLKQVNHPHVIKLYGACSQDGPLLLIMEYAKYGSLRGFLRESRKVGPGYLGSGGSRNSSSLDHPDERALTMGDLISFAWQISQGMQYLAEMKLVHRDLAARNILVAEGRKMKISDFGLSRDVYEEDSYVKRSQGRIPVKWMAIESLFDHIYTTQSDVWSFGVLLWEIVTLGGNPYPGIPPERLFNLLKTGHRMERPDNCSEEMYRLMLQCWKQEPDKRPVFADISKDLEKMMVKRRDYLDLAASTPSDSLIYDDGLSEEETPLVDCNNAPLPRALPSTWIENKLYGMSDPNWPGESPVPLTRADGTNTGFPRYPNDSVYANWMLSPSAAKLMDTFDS
T5 sequence (P33176 2-575 partner): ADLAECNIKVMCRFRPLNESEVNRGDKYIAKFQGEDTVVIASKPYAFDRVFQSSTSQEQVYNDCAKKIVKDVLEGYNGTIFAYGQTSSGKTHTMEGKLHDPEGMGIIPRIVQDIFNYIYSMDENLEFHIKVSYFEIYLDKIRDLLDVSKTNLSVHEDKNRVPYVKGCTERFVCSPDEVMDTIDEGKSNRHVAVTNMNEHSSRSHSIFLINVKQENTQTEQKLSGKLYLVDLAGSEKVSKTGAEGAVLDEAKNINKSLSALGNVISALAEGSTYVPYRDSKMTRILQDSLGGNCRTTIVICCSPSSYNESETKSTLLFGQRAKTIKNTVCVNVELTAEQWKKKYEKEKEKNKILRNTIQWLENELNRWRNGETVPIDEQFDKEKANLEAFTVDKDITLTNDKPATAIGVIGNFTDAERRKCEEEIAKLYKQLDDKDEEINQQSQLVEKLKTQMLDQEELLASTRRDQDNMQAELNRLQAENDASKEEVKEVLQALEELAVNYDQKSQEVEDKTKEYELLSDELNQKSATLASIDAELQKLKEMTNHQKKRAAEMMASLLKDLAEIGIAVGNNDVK

[1] = Data 1, read-out: % Enzyme Activity (relative to DMSO controls) RET-CCDC6 (PTC1) Data 1
[2] = Data 2, read-out: % Enzyme Activity (relative to DMSO controls) RET-CCDC6 (PTC1) Data 2
[3] = Data 1, read-out: % Enzyme Activity (relative to DMSO controls) RET (G810S/M918T) Data 1
[4] = Data 2, read-out: % Enzyme Activity (relative to DMSO controls) RET (G810S/M918T) Data 2
[5] = BaF3, 72 hours incubation, Cell Counting Kit-8

T1 sequence (P07949 29-1114 G810R): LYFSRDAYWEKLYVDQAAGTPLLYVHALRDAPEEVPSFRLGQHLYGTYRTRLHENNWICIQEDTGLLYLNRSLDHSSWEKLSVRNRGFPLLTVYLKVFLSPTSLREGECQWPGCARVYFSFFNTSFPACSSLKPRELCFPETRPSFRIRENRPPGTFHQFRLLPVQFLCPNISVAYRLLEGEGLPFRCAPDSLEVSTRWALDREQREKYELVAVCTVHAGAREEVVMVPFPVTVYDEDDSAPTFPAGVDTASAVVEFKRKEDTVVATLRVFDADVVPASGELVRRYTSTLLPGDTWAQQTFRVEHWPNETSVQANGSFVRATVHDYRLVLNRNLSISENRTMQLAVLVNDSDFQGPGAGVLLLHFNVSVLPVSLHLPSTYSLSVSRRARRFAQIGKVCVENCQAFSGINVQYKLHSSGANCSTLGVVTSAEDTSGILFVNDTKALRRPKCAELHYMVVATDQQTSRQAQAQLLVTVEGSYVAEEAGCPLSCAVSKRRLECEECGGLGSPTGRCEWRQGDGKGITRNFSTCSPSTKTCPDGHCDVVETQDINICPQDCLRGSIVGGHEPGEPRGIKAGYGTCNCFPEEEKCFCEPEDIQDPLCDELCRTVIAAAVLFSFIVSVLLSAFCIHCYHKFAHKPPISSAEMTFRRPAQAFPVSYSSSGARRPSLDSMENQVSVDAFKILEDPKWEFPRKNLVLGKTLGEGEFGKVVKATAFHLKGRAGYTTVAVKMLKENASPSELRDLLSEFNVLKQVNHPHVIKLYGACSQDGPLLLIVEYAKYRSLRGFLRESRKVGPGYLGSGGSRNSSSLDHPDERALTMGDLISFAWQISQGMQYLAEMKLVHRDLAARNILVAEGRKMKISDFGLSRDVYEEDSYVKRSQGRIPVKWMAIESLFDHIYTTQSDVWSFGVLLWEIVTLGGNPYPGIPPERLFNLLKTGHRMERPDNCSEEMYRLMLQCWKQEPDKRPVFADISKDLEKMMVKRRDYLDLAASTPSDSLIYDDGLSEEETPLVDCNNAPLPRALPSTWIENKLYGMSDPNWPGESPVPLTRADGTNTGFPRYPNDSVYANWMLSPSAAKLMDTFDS
T3 sequence (P07949 29-1114 G810S/M918T): as the sequence (P07949 29-1114 G810R) above, with R782S, M890T counted along it
T2 sequence (P07949 whole entry, looked up): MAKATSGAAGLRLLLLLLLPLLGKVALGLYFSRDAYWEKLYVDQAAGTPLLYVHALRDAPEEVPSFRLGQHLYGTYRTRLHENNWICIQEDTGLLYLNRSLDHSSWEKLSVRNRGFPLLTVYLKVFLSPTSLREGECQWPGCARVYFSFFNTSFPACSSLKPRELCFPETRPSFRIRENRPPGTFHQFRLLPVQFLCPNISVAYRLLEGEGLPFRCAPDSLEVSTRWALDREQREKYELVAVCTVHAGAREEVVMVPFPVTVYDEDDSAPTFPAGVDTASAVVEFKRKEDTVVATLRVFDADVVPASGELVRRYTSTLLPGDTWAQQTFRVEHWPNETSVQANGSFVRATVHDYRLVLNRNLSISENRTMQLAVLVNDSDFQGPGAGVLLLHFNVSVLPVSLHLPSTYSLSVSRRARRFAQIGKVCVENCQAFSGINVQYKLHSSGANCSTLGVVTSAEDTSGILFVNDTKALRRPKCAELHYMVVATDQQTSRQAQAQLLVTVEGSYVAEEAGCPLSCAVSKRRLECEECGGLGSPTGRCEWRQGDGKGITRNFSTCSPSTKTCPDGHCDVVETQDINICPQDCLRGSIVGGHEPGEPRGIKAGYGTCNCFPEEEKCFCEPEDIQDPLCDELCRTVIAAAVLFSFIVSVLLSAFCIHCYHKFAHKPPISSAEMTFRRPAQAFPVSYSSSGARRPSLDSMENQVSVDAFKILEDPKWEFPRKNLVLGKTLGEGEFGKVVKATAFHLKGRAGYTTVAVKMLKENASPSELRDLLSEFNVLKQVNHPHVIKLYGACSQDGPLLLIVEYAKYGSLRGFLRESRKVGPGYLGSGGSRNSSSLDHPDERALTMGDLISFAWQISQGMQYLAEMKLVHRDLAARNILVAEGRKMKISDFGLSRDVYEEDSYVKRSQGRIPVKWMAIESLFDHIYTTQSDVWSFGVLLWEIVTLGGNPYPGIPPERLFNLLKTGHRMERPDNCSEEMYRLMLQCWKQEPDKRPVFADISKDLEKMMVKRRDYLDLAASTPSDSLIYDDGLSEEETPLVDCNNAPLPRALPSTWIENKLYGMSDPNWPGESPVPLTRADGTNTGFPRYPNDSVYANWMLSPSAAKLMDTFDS
T4 sequence (P07949 29-1114 V804M): as the sequence (P07949 29-1114 G810R) above, with V776M, R782G counted along it

Structure (SMILES) | remaining activity at 0.1 µM (RET(G810R)) [%] | remaining activity at 10 µM (RET-CCDC6 (PTC1); [1]) [%] | remaining activity at 10 µM (RET-CCDC6 (PTC1); [2]) [%] | remaining activity at 10 µM (RET (G810S/M918T); [3]) [%] | remaining activity at 10 µM (RET (G810S/M918T); [4]) [%] | GI50 (BaF3-RET(V804M); [5]) [nM] | remaining activity at 0.1 µM (RET(V804M)) [%] | remaining activity at 0.1 µM (RET(V804M)-KIF5B) [%] | Cell Proliferation (% of control) (A-549) [%] | GI50 (BaF3-RET(V804M); BaF3, 72 h) [nM] | IC50 (RET(G810R); read-out: Enzymatic inhibitory activity (IC50) nM G810R) [nM] | IC50 (RET(V804M); read-out: Enzymatic inhibitory activity (IC50) nM V804M) [nM] | IC50 (RET(V804M)-KIF5B) [nM]
CNc1cc(-c2ccc(N3CC(Oc4cccc(F)c4)C3)nc2)c2nccnc2c1 [Example 2, 8-(6-(3-(3-fluorophenoxy)azetidin-1-yl)pyridin-3-yl)-N-methylquinoxalin-6-amine] | 77.3 | 1.38 | 0.23 | 0.05 | -0.43 | 943 | – | – | 18.59 | – | – | – | –
Cc1ccc(C(=O)Nc2ccc(CN3CCN(C)CC3)c(C(F)(F)F)c2)cc1C#Cc1cnc2cccnn12 [Ponatinib, ponatinib, reference compound] | – | – | – | – | – | – | – | – | -1.99 | 115 | – | – | –
Nc1cc(-c2ccc(N3CC[C@H](NC(=O)c4ccccc4F)C3)nc2)c2nccnc2c1 [Example 10, (S)-N-(1-(5-(7-aminoquinoxalin-5-yl)pyridin-2-yl)pyrrolidin-3-yl)-2-fluorobenzamide] | 59.9 | 1.55 | 0.99 | -0.09 | -0.6 | – | 2.27 | 5.5 | 32.59 | – | 44.7 | 0.5 | 2.26

The next lines start with results.

remaining activity at 0.1 µM (RET(G810R)) [%] | remaining activity at 10 µM (RET-CCDC6 (PTC1); [1]) [%] | remaining activity at 10 µM (RET-CCDC6 (PTC1); [2]) [%] | remaining activity at 10 µM (RET (G810S/M918T); [3]) [%] | remaining activity at 10 µM (RET (G810S/M918T); [4]) [%] | GI50 (BaF3-RET(V804M); [5]) [nM] | remaining activity at 0.1 µM (RET(V804M)) [%] | remaining activity at 0.1 µM (RET(V804M)-KIF5B) [%] | Structure (SMILES) | Cell Proliferation (% of control) (A-549) [%] | GI50 (BaF3-RET(V804M); BaF3, 72 h) [nM] | IC50 (RET(G810R); read-out: Enzymatic inhibitory activity (IC50) nM G810R) [nM] | IC50 (RET(V804M); read-out: Enzymatic inhibitory activity (IC50) nM V804M) [nM] | IC50 (RET(V804M)-KIF5B) [nM]
56 | 1.36 | 1.07 | -0.84 | -0.85 | 2120 | – | – | CNc1cc(-c2ccc(N3CC[C@H](NC(=O)c4ccccc4F)C3)nc2)c2nccnc2c1 [Example 11, (S)-2-fluoro-N-(1-(5-(7-(methylamino)quinoxalin-5-yl)pyridin-2-yl)pyrrolidin-3-yl)benzamide] | 20.80 | – | – | – | –
59.9 | 1.25 | 1.01 | 2.65 | 0.69 | 1060 | 2.27 | 5.5 | CCNc1cc(-c2ccc(N3CC[C@H](NC(=O)c4ccccc4F)C3)nc2)c2nccnc2c1 [Example 12, (S)-N-(1-(5-(7-(ethylamino)quinoxalin-5-yl)pyridin-2-yl)pyrrolidin-3-yl)-2-fluorobenzamide] | 41.67 | – | – | – | –
96.7 | 2.53 | 1.8 | 13.6 | 12.9 | – | 46 | 65.1 | O=C(Nc1cc(-c2ccc(N3CC(Oc4cccc(F)c4)C3)nc2)c2nccnc2c1)c1ccco1 [Example 8, N-(8-(6-(3-(3-fluorophenoxy)azetidin-1-yl)pyridin-3-yl)quinoxalin-6-yl)furan-2-carboxamide] | 78.35 | – | – | – | –
